The values below come from patent publication EP0994871B1, “NOVEL SUBSTITUTED NAPHTHOPYRANS” (TRANSITIONS OPTICAL, INC., priority 1997, dated 1998).

A short description of series [1]: Photochromic response of polymeric test squares on an optical bench. Particulars: for ΔOD@ SATURATION: UV exposure continued for 20 minutes; for ΔOD@ SATURATION / ΔOD/MIN SENSITIVITY: test squares, 75°F (23.9°C); for ΔOD/MIN SENSITIVITY: measured over the first five (5) seconds of UV exposure, expressed on a per minute basis; for Bleach (T1/2): time for absorbance of the activated form in the test squares to reach one half the highest absorbance at room temperature (75°F, 23.9°C) after removal of activating light. The format is physicochemical. Here is the method: Testing was done with the photochromic naphthopyrans of the Examples incorporated into polymeric samples by the following method. The quantity of naphthopyran calculated to yield a 1.5 times 10^-3 molal solution was added to a flask containing 50 grams of a monomer blend of 4 parts ethoxylated bisphenol A dimethacrylate (BPA 2EO DMA), 1 part poly(ethylene glycol) 600 dimethacrylate, and 0.033 weight percent 2,2'-azobis(2-methyl propionitrile) (AIBN). The naphthopyran was dissolved into the monomer blend by stirring and gentle heating, if necessary. After a clear solution was obtained, it was poured into a flat sheet mold having the interior dimensions of 2.2 mm x 6 inches (15.24 cm) x 6 inches (15.24 cm). The mold was sealed and placed in a horizontal air flow, programmable oven set to increase the temperature from 40°C. to 95°C. over a 5 hour interval, hold the temperature at 95°C. for 3 hours and then lower it to 60°C. for at least 2 hours before the end of the curing cycle. After the mold was opened, the polymer sheet was cut using a diamond blade saw into 2 inch (5.1 centimeters) test squares.
The photochromic test squares prepared in Part A were tested for photochromic response rates on an optical bench. Prior to testing on the optical bench, the photochromic test squares were exposed to 365 nanometer ultraviolet light for about 15 minutes to activate the photochromic compounds and then placed into a 76°C oven for about 15 minutes to bleach or inactivate the photochromic compounds. The test squares were then cooled to room temperature, exposed to fluorescent room lighting for at least 2 hours and then kept covered for at least 2 hours prior to testing on an optical bench maintained at 75°F (23.9°C). The bench was fitted with a 150 watt Xenon arc lamp, a remote controlled shutter, a copper sulfate bath acting as a heat sink for the arc lamp, a Schott WG-320 nm cut-off filter which removes short wavelength radiation; neutral density filter(s) and a sample holder in which the square to be tested was inserted. A collimated beam of light from a tungsten lamp was passed through the square at a small angle normal to the square. After passing through the square, the light from the tungsten lamp was directed through a photopic filter attached to a detector. The photopic filter passes wavelengths such that the detector mimics the response of the human eye. The output signals from the detector(s) were processed by a radiometer.
Change in optical density (ΔOD) was determined by inserting a test square in the bleached state into the sample holder, adjusting the transmittance scale to 100%, opening the shutter from the Xenon lamp to provide ultraviolet radiation to change the test square from the bleached state to an activated (i.e., darkened) state, measuring the transmittance in the activated state, and calculating the change in optical density according to the formula A OD=log(100/%Ta) where %Ta is the percent transmittance in the activated state and the logarithm is to the base 10.
(§1) The Δ OD/Min, which represents the sensitivity of the photochromic compound's response to UV light, was measured over the first five (5) seconds of UV exposure, then expressed on a per minute basis. The saturation optical density (OD) was taken under identical conditions as the A OD/Min, except UV exposure was continued for 20 minutes for the examples in Table 1. The lambda max reported in Table 1 is the wavelength in the visible spectrum at which the maximum absorption of the activated (colored) form of the photochromic compound in a diethylene glycol bis(allyl carbonate) composition occurs. The Bleach Rate (T 1/2) is the time interval in seconds for the absorbance of the activated form of the naphthopyran in the test squares to reach one half the highest absorbance at room temperature (75°F, 23.9°C) after removal of the source of activating light.

Series [2] in a line: Lambda max of the activated (colored) form in a diethylene glycol bis(allyl carbonate) composition. The format is physicochemical. The conditions noted are these: wavelength in the visible spectrum of maximum absorption of the activated (colored) form in a diethylene glycol bis(allyl carbonate) composition. Here is the method: as §1

For the compound `COc1ccc(C2(c3ccc(OC)cc3)C=Cc3c(C)c(OC(C)=O)c4ccccc4c3O2)cc1` [Example 6, 2,2-bis(4-methoxyphenyl)-5-methyl-6-acetoxy-2H-naphtho[1,2-b]pyran], in series [1], the “ΔOD@ SATURATION” value is given as 0.37, the “ΔOD/MIN SENSITIVITY” value worked out at 0.14 and the “Bleach (T1/2)” value turned out to be 2 min. Also, in series [2], the “LAMBDA MAX (VISIBLE)” value came out at 506 nm.
Taken in the same sequence, the figures for `COc1ccc(C2(c3ccc(OC)cc3)C=Cc3c(Cl)c(OC(C)=O)c4ccccc4c3O2)cc1` [Example 5, 2,2-bis(4-methoxyphenyl)-5-chloro-6-acetoxy-2H-naphtho[1,2-b]pyran] were 0.07, 0.08, 0.9 min and 462 nm.
On to `Oc1c(Sc2ccccc2)c2c(c3ccccc13)OC1(C=C2)C2CC3CC(C2)CC1C3` (stereo not drawn) [Example 7, 2,2'-spiroadamantylene-5-phenylthio-6-hydroxy-2H-naphtho[1,2-b]pyran], for which, in series [1], the “ΔOD@ SATURATION” value turned out to be 0.47 and the “ΔOD/MIN SENSITIVITY” value turned out to be 0.15. Moreover, in series [2], the “LAMBDA MAX (VISIBLE)” value stood at 462 nm.
As for `COc1ccc(C2(c3ccc(OC)cc3)C=Cc3c(Sc4ccccc4)c(OC(C)=O)c4ccccc4c3O2)cc1` [Example 4, 2,2-bis(4-methoxyphenyl)-5-phenylthio-6-acetoxy-2H-naphtho[1,2-b]pyran], in series [1], the “ΔOD@ SATURATION” value is 0.23, the “ΔOD/MIN SENSITIVITY” value was determined as 0.22 and the “Bleach (T1/2)” value was 0.7 min. The “LAMBDA MAX (VISIBLE)” value in series [2] stood at 516 nm.
With `CC(=O)Oc1c(Sc2ccccc2)c2c(c3ccccc13)OC1(C=C2)C2CC3CC(C2)CC1C3` (stereo not drawn) [Example 8, 2,2'-spiroadamantylene-5-phenylthio-6-acetoxy-2H-naphtho[1,2-b]pyran], in series [1], the “ΔOD@ SATURATION” value was found to be 0.04 and the “ΔOD/MIN SENSITIVITY” value amounted to 0.10. In addition, the “LAMBDA MAX (VISIBLE)” value in series [2] stood at 459 nm.
Take `COc1c(C)c2c(c3ccccc13)OC1(C=C2)C2CC3CC(C2)CC1C3` (stereo not drawn) [Example 9, 2,2'-spiroadamantylene-5-methyl-6-methoxy-2H-naphtho[1,2-b]pyran]: in series [1], the “ΔOD@ SATURATION” value came out at 0.17 and the “ΔOD/MIN SENSITIVITY” value worked out at 0.12. Besides, the “LAMBDA MAX (VISIBLE)” value in series [2] was determined as 462 nm.
For the compound `COc1ccc(C2(c3ccc(OC)cc3)C=Cc3c(Sc4ccccc4)c(O)c4ccccc4c3O2)cc1` [Example 3, 2,2-bis(4-methoxyphenyl)-5-phenylthio-6-hydroxy-2H-naphtho[1,2-b]pyran], in series [1], the “ΔOD@ SATURATION” value turned out to be 1.76, the “ΔOD/MIN SENSITIVITY” value is recorded as 0.34 and the “Bleach (T1/2)” value was over 10 min. In addition, the “LAMBDA MAX (VISIBLE)” value in series [2] is 516 nm.
As to `COc1ccc(C2(c3ccc(OC)cc3)C=Cc3c(C(O)(c4ccccc4)c4ccccc4)c(O)c4ccccc4c3O2)cc1` [Example 10, 2,2-bis(4-methoxyphenyl)-5-diphenylmethylol-6-hydroxy-2H-naphtho[1,2-b]pyran], in series [1], the “ΔOD@ SATURATION” value is given as 0.32 and the “ΔOD/MIN SENSITIVITY” value is reported as 0.05. Also, in series [2], the “LAMBDA MAX (VISIBLE)” value was 482 nm.
Turning to `COc1ccc(C2(c3ccc(OC)cc3)C=Cc3c(-c4cccn4C)c(OC(C)=O)c4ccccc4c3O2)cc1` [Example 1, 2,2-bis(4-methoxyphenyl)-5-(N-methylpyrrol-2-yl)-6-acetoxy-2H-naphtho[1,2-b]pyran], in series [1], the “ΔOD@ SATURATION” value came out at 0.25, the “ΔOD/MIN SENSITIVITY” value is 0.16 and the “Bleach (T1/2)” value was 1.23 min. The “LAMBDA MAX (VISIBLE)” value in series [2] was determined as 513 nm.
The matching figures for `COc1ccc(C2(c3ccc(OC)cc3)C=Cc3c(-c4ccc(OC)cc4OC)c(OC(C)=O)c4ccccc4c3O2)cc1` [Example 2, 2,2-bis(4-methoxyphenyl)-5-(2,4-dimethoxyphenyl)-6-acetoxy-2H-naphtho[1,2-b]pyran]: 0.55, 0.15, 4.13 min and 511 nm.
